Measurements from US20210123061A1, “METHODS AND COMPOSITIONS FOR TREATING INFLAMMATORY DISEASE OR DISORDER” (THE BRIGHAM AND WOMEN'S HOSPITAL, INC., priority 2018, published 2021).

Test system: RSK-substrates (RXXpS/T phospho-peptides)
Assay: Phospho-proteomics with anti-RXXpS/T enrichment in IFN-γ-stimulated macrophages
Format: cell-based, human
Details: BI-D1870 +IFNg, IP:RXXpS/T, DMSO = 1.00
Experimental: (FIG. 6A) Scheme of phospho-proteomics. Human PBMC-derived macrophages were treated with DMSO or BI-D1870 for two hours followed by IFN-γ stimulation for subsequent proteolysis and phospho-peptide enrichment using the anti-RXXpS/T antibody strategy. […] N=2 donors. […] The average shortest distance of the same number of randomly selected genes to disease genes was calculated for N=250 realizations in order to compare the average shortest distance value to random expectation. Empirical p-values were calculated based on 100 degree-preserved randomizations of the first neighbor networks.
Phospho-proteomics. Phospho-peptide immunoaffinity purification from cell lysates was performed as described previously (36), with minor modifications. Human PBMC-derived macrophages were pretreated with DMSO or BI-D1870 followed by IFN-γ stimulation. Cell lysates (8.0 mg) were proteolyzed (Lys-C, Wako Chemicals) using in-solution urea strategy detailed previously (34). Trifluoroacetic acid (TFA) was added to protein digests to a final concentration of 1%, precipitate was removed by centrifugation, and digests were loaded onto Sep-Pak C18 columns (Waters) equilibrated with 0.1% TFA. Columns were washed with 0.1% TFA and wash buffer (0.1% TFA, 5% acetonitrile). A peptide fraction was obtained by elution with elution buffer (0.1% TFA, 40% acetonitrile). The peptide eluate was frozen overnight and lyophilize frozen peptide solution for 2 days. Peptides were dissolved in 1.4 mL of IAP buffer (Cell signaling Technology). Insoluble matter was removed by centrifugation. […] The immobilized antibody beads were washed three times with 1 ml IAP buffer and three times with 1 ml water, all at 4° C. Peptides were eluted from beads by incubation with 55 μl of 0.15% TFA at room temperature for 10 minutes (eluate 1), followed by a wash of the beads (eluate 2) with 50 μl of 0.15% TFA. Both eluates were combined. The peptide solution was desalted using Oasis Hlb 1 cc columns (Waters), dried in a SpeedVac, resuspend with Trypsin solution, and digested overnight. After desalting using Oasis Hlb 1 cc columns, peptides were dried in a SpeedVac, and resuspend with 40 μl of 5% acetonitrile and 0.5% formic acid for subsequent analysis by liquid chromatography/mass spectrometry (LC/MS).
Each peptide sample was analyzed four times: a full scan range of 350-1800 m/z and three gas phase separation scans—350-500 m/z, 500-700 m/z, and 700-1200 m/z in order to increase phospho-peptide signals.
Phospho-proteomics and kinase assays. The MS/MS data were queried as above using a 10-ppm tolerance window in the MS1 search space, and a 0.02 Da fragment tolerance window for EThcD or HCD. Methionine oxidation, and phosphorylation of serine and threonine were set as variable modifications, and carbamidomethylation of cysteine residues was set as fixed modifications. High confidently assigned phospho-peptides were used for precursor ion area under the curve (AUC) quantification. The peptides that were detected in IgG conditions were considered as non-specific signals and excluded. The normalized precursor ion intensities were exported from PD2.1.

For `CC(C)CCN1c2nc(Nc3cc(F)c(O)c(F)c3)ncc2N(C)C(=O)C1C` (stereo not drawn) [BI-D1870], the “Intensity of phospho-peptide SLC20A1 S335 [R].ERLPSVDLK.[E]” value (DMSO +IFNg = 1.51) was 0.51, the “Intensity of phospho-peptide LUC7L3 T238 [R].KRTEEPDRDER.[L]” value (DMSO +IFNg = 1.55) was 1.03 and the “Intensity of phospho-peptide STX7 S129 [R].ASSRVSGSFPEDSSK.[E]” value (DMSO +IFNg = 1.60) was 0.67. For the same compound, the “Intensity of phospho-peptide AP1AR T228 [R].SKTEEDILR.[A]” value (DMSO +IFNg = 1.67) was 0.80, the “Intensity of phospho-peptide AKAP13 T2471 [R].RAETFGGFDSHQMNASK.[G]” value (DMSO +IFNg = 1.68) was 0.73 and the “Intensity of phospho-peptide CLASP1 S646 [R].RQSSGSATNVASTPDNR.[G]” value (DMSO +IFNg = 1.75) was 0.94. For the same compound, the “Intensity of phospho-peptide TRPM7 S1504 [R].RPSTEDTHEVDSK.[A]” value (DMSO +IFNg = 1.75) was 0.73, the “Intensity of phospho-peptide SLC4A7 S407 [R].ENSTVDFSK.[VEG]” value (DMSO +IFNg = 1.79) was 1.61 and the “Intensity of phospho-peptide IFNGR1 T295 [R].SATLETKPESK.[Y]” value (DMSO +IFNg = 1.83) was 0.77. The “Intensity of phospho-peptide RPS6 S235 [K].RRRLSSLRASTSK.[S]” value (DMSO +IFNg = 1.86) was 0.74, the “Intensity of phospho-peptide REPS1 S650 [R].LKSEDELRPEVDEHTQK.[T]” value (DMSO +IFNg = 1.91) was 0.94 and the “Intensity of phospho-peptide REPS1 S650 [R].RLKSEDELRPEVDEHTQK.[T]” value (DMSO +IFNg = 1.96) was 1.09. For the same compound, the “Intensity of phospho-peptide GPBP1 S49 [R].HNSSDGFDSAIGRPNGGNFGR.[K]” value (DMSO +IFNg = 2.05) was 0.45, the “Intensity of phospho-peptide MYO1E T935 [R].RNTTQNTGYSSGTQNANYPVR.[A]” value (DMSO +IFNg = 2.15) was 0.88 and the “Intensity of phospho-peptide CHP1 T7 [R].ASTLLRDEELEEIKK.[E]” value (DMSO +IFNg = 2.18) was 1.00. For the same compound, the “Intensity of phospho-peptide NDRG3 S338 [R].THSTSSSLGSGESPFSR.[S]” value (DMSO +IFNg = 2.25) was 1.07, the “Intensity of phospho-peptide GPBP1 S49 [R].RHNSSDGFDSAIGRPNGGNFGR.[K]” value (DMSO +IFNg = 2.28) was 1.00 and the “Intensity of phospho-peptide NDRG1 S330 [R].TASGSSVTSLDGTR.[S]” value (DMSO +IFNg = 2.29) was 1.88. For the same compound, the “Intensity of phospho-peptide STK11IP S398 [R].RASISEPSDTDPEPR.[T]” value (DMSO +IFNg = 2.31) was 0.58, the “Intensity of phospho-peptide EIF4B S422 [R].TGSESSQTGTSTTSSR.[SN]” value (DMSO +IFNg = 2.58) was 1.29 and the “Intensity of phospho-peptide SPECC1L T838 [R].RSSTSSEPTPTVK.[T]” value (DMSO +IFNg = 2.80) was 1.80. The “Intensity of phospho-peptide AKT1S1 T266 [R].LNTSDFQK.[L]” value (DMSO +IFNg = 3.11) was 0.89, the “Intensity of phospho-peptide RPS6 S235; S236 [R].RLSSLRASTSK.[S]” value (DMSO +IFNg = 3.46) was 1.65 and the “Intensity of phospho-peptide FLNA S2152 [R].RAPSVANVGSHCDLSLK.[I]” value (DMSO +IFNg = 3.67) was 1.32.
